Test results: paper PMC12294753, “Development of INER-PP-F11N as the Peptide-Radionuclide Conjugate Drug Against CCK2 Receptor-Overexpressing Tumors” (International Journal of Molecular Sciences, 2025)
Like-named read-outs stand apart in the source and are kept apart here. Where a SMILES comes first, the peptide text is derived from it. [ ]: non-standard residue; d: D form. The star is where a group is joined. DOTA = O=C(O)CN1CCN(CC(=O)O)CCN(CC(=O)*)CCN(CC(=O)O)CC1; Butanoyl(4-(4-MePh)) = Cc1ccc(CCCC(=O)*)cc1; Nle = CCCC[C@H](N)C(=O)O; Ahx = NCCCCCC(=O)O

How the values were obtained:
[1] = test system: pancreatic tumor PDX models; parameters: method as in PMID 34593598; conditions: cited from earlier work
[2] = test system: A431-CCK2R (−)/A431-CCK2R (+) tumor-bearing mice; test: NanoSPECT/CT imaging of tumor-bearing mice; assay type: in vivo
Description: (§1) To generate A431-CCK2R (+) and A431-CCK2R (−) tumor-bearing mice models, mice (3 per group) were inoculated subcutaneously with 6 × 10^6 cells, which were injected into the inner right back leg for A431-CCK2R (+) tumors and the left back leg for A431-CCK2R (−) tumors, respectively. These xenografts were monitored until the tumor volume reached approximately 200–500 mm^3 [57]. The mice were then randomized to subgroups for further experiments. The formula for calculating tumor volume (V) is V = 4/3πr^3.
The NanoSPECT/CT® plus scanner system (Mediso Medical Imaging Systems; Budapest, Hungary) was utilized to detect in vivo tumors in the in vivo animal models. Both A431-CCK2R (+) and A431-CCK2R (−) cancer cells were inoculated subcutaneously into the inner right leg and left back leg of the mice. Radiopharmaceuticals—[^111In]In-DOTA-PP-F11N, [^111In]In-DOTA-INER-PP-F11N-1, and [^111In]In-DOTA-INER-PP-F11N-2 (1 mCi)—were injected once the mean tumor volume reached approximately 200–500 mm^3. Inhalant (1–2% isoflurane) was used to anesthetize the mice during imaging acquisition. X-ray CT images and SPECT images were taken 4, 24, and 48 h after tail-vein injection. NanoSPECT imaging was acquired using nine multi-pinhole gamma detectors with high-resolution collimators. The energy window was set at 171 and 245 KeV ± 10%, the image size was set at 256 × 256, and the field of view was set at 60 mm × 100 mm.
For Lu-177, only 208 keV photons were used for imaging, with an energy window set at 208 keV ± 10%. Although Lu-177 also emits lower abundance photons at 113 keV, the 208 keV photon provides better image quality due to reduced scatter and higher energy resolution. Therefore, the gamma camera energy windows were specifically tailored to the photon emission profiles of each radionuclide to ensure optimal detection efficiency and image accuracy.
(§2) We investigated therapeutic responses in mice receiving [^177Lu]Lu-DOTA-PP-F11N, [^177Lu]Lu-DOTA-INER-PP-F11N-1, or [^177Lu]Lu-DOTA-INER-PP-F11N-2. A431-CCK2R (+) and A431-CCK2R (−) cells were implanted subcutaneously into the right and left inner hind legs of NOD/SCID mice. Once the tumors reached a volume of 200–500 mm^3, the mice were intravenously injected with either 200 μCi of [^177Lu]Lu-DOTA-PP-F11N, [^177Lu]Lu-DOTA-INER-PP-F11N-1, [^177Lu]Lu-DOTA-INER-PP-F11N-2, or PBS (as a non-radioactive control). The NanoSPECT/CT® plus scanner system (Mediso Medical Imaging Systems; Budapest, Hungary) was utilized to detect and image tumors in the mouse models. Tumor volumes were measured twice a week for 4 weeks.

[3] = test system: A431-CCK2R (+) tumors; test: Therapeutic responses to Lu-177-labeled CCK2R analogs in CCK2R-expressing cancer-bearing mice; assay type: in vivo; conditions: 200 μCi intravenously
Description: as §1, §2

[4] = Metabolic stability analysis (radio-HPLC) in PBS at 4 °C or FBS at 37 °C; assay type: in vitro ADME
Description: DOTA-PP-F11N, DOTA-INER-PP-F11N-1, and DOTA-INER-PP-F11N-2 were labeled with In-111 and Lu-177 for further experiments. The detection of free In-111 after ITLC extension was defined as 0% radiolabeling efficiency. […]
To measure the labeling efficiency, ITLC was performed on glass microfiber chromatography paper impregnated with a silica gel (Agilent Technologies, Santa Clara, CA, USA) as described previously. Briefly, the ITLC sheets were developed with 10% methanol as solvent (Rf free Lu-177 = 0, Rf Lu-177-labeled compounds = 1) and measured using a radioactive scanner (AR-2000 radio-TLC […] Imaging Scanner, Bioscan, France). The sample was mixed with acetonitrile at a 1:1 (v/v) ratio, followed by centrifugation at 16,000× g for 5 min. The resulting supernatant was subsequently analyzed using HPLC with UV (220[…]) and radio detector with a Zorbax SB-C18 column (Agilent Technologies, Santa Clara, CA, USA). The flow rate was 0.8 mL/min, with the gradient mobile phase going from 90% A […] buffer (0.1% TFA in water) and 10% B buffer (0.1% TFA in acetonitrile) to 90% B buffer […] within 20 min.

[5] = test system: A431-CCK2R (−) cells; test: In vitro binding and internalization assay, A431-CCK2R (−) cells; assay type: cell-based; conditions: 37 °C
Description: (§3) In vitro binding and internalization activities were measured using a gamma counter (WIZARD 1480, Perkin-Elmer). Briefly, A431-CCK2R (+) and A431-CCK2R (−) cells were seeded on 24-well plates (1 × 10^5 cells/well, Corning, NY, USA) for 12 h. The plated cells were treated with 30 ± 10 GBq/µmol of [^177Lu]Lu-DOTA-PP-F11N, [^177Lu]Lu-DOTA-INER-PP-F11N-1, or [^177Lu]Lu-DOTA-INER-PP-F11N-2 (1 mL/well) and then incubated at 37 °C for either 1 or 4 h. After incubation, the medium was collected, and the cells were then washed with ice-cold buffer. The medium and washed PBS were collected in tube 0. The washed cells were treated with glycine–HCl buffer (0.1 M, pH 3.0) and incubated for 10 min. After incubation, cells were washed again with glycine–HCl buffer. Both glycine-HCl buffer solutions were collected in tube 1. The washed cells were treated with 1 N NaOH (1 mL/well) and incubated for 10 min for cell lysis. After incubation, the cells were washed once with 1 N NaOH. The cell lysate solution was collected in tube 2. All tubes were analyzed using a gamma counter to detect radioactivity. Data were obtained from at least three independent experiments. The respective formulae for in vitro surface binding activity and internalization were as follows:Surface binding = tube 1/(tube 0 + tube 1 + tube 2) × 100%.Internalization = tube 2/(tube 0 + tube 1 + tube 2) × 100%.

[6] = test system: A431-CCK2R (+) cells; test: In vitro binding and internalization assay, A431-CCK2R (+) cells; assay type: cell-based; parameters: surface binding activity / internalization activity: concentration or dose not given beside the values; conditions: for internalization activity / surface binding activity: A431-CCK2R (+) cells, 37 °C
Description: as §3

[7] = Biodistribution study in tumor-bearing mice; assay type: in vivo; conditions: mouse, intravenous, total radioactivity, 72 h after tail-vein injection, tumor-bearing mice
Description: as §1
Mice were sacrificed via CO2 asphyxiation 72 h after intravenous injection of 50–100 μCi (50–100 μL) of radiolabeled DOTA-PP-F11N, DOTA-INER-PP-F11N-1, or DOTA-INER-PP-F11N-2 [58]. Tumors and organs of interest were collected for further pathological examinations. The PerkinElmer 2480 Automatic Gamma Counter (PerkinElmer, Waltham, MA, USA) was used to measure radioactivity; the data are presented as the percentage injected dose per gram of tissue (%ID/g).

[8] = Histopathological examinations (H&E) of mice after radiolabeled drug administration; assay type: in vivo; conditions: light microscopy
Source text: To investigate the pathological alterations in tumor-bearing mice receiving radiopharmaceuticals, […] tissues, including tumors, heart, liver, and kidneys, were collected. The specimens were first fixed using 10% buffered neutral formalin and then embedded in paraffin. Sections of 3–5 μm thickness were stained with H&E and examined using light microscopy (40 × and 20 ×).

Structure (SMILES)	tumor uptake and retention [1]	clearance of radiotracer accumulation in the urinary bladder, time after injection ([2]; NanoSPECT/CT)	tumor volume at D23 [3]	metabolic stability ([4]; 4 °C PBS, 144 h after Lu-177 labeling)	metabolic stability ([4]; Lu-177-labeled, 37 °C FBS, 144 h)	internalization activity ([5]; 1 h)	surface binding activity ([5]; 1 h)	internalization activity ([5]; 4 h)	internalization activity ([6]; 1 h)	surface binding activity ([6]; 1 h)	internalization activity ([6]; 4 h)	surface binding activity ([6]; 4 h)	enhancement of internalization activity compared with PP-F11N ([6]; A431 CCK2R (+) cells, compared with conventional [^177Lu]Lu-DOTA-PP-F11N)	radioactivity within the kidneys on NanoSPECT/CT ([2]; compared with Lu-177-labeled PP-F11N over the same period)	radiotracer accumulation in the tumor region on NanoSPECT/CT ([2]; tail-vein injection, Lu-177-labeled)	tissue uptake at 72 h ([7]; kidneys, read-out: radiotracer accumulation in the kidneys)	tissue uptake at 72 h ([7]; tumor (A431-CCK2R (+)), read-out: tumor uptake of radiopharmaceuticals)	histopathological changes in the kidneys [8]	histopathological changes in the liver and heart [8]
Cc1cc(-c2ccc(NC(=O)CCCC(=O)N[C@@H](CCCCNC(=O)CN3CCN(CC(=O)O)CCN(CC(=O)O)CCN(CC(=O)O)CC3)C(=O)N3CCN(CCCOc4ccc5nccc(C(=O)NCC(=O)N6CC(F)(F)C[C@H]6C#N)c5c4)CC3)c(C)c2)ccc1N=Nc1ccc2c(S(=O)(=O)O)cc(S(=O)(=O)O)c(N)c2c1O [TEFAPI-07]	significantly enhanced tumor uptake and retention																		
O=C([O-])CN1CCN(CC(=O)[O-])CCN(CC(=O)[O-])CCN(CC(=O)[O-])CC1.[177Lu+3] [[^177Lu]Lu-DOTA, reference compound]		≤ 24 h	3237.10 ± 846.25 mm^3																
CCCC[C@H](NC(=O)[C@H](Cc1c[nH]c2ccccc12)NC(=O)CNC(=O)[C@H](Cc1ccc(O)cc1)NC(=O)[C@H](C)NC(=O)[C@@H](CCC(=O)O)NC(=O)[C@@H](CCC(=O)O)NC(=O)[C@@H](CCC(=O)O)NC(=O)[C@@H](CCC(=O)O)NC(=O)[C@@H](CCC(=O)O)NC(=O)[C@@H](CCC(=O)O)NC(=O)CCCCCNC(=O)[C@H](CCCCNC(=O)CCCc1ccc(C)cc1)NC(=O)CN1CCN(CC(=O)O)CCN(CC(=O)O)CCN(CC(=O)O)CC1)C(=O)N[C@@H](CC(=O)O)C(=O)N[C@@H](Cc1ccccc1)C(N)=O [[^177Lu]Lu-DOTA-INER-PP-F11N-2, metal not drawn] ({DOTA}-K(Butanoyl(4-(4-MePh)))[Ahx][dE][dE][dE][dE][dE][dE]AYGW[Nle]DF-NH2)			1162.60 ± 275.92 mm^3	more than 95%	> 99%	0.25 ± 0.04 %IA/106 cells	0.59 ± 0.01 %IA/106 cells	0.15 ± 0.18 %IA/106 cells	41.58 ± 3.46%	5.51 ± 0.45%	81.26 ± 7.27%	8.11 ± 2.65%	13.7%	significantly lower	imaging of the tumor was limited	7.4 ± 1.5 %ID/g	0.88 ± 0.25 %ID/g	no significant histopathological changes	no significant histopathological changes
